Where a name gives a salt, the structure may show the parent alone. Read-outs that look alike come from different tables or passages of the source.
Key:
[1] = molecular target: wild-type human CRBN protein (Homo sapiens, UniProt Q96SW2); assay: biochemical
Experimental: The binding to cereblon (CRBN) was determined using the Cereblon Binding Kit (Cisbio, #64BDCRBNPEG) following the manufacturer's instruction. Briefly, serially diluted compounds were incubated with GST-tagged wild-type human CRBN protein, XL665-labelled Thalidomide and Europium Cryptate labelled GST antibody at room temperature for about 3 hours.

IKZF2 = molecular target: T1, IKZF2 (Homo sapiens, UniProt Q96SW2+Q9UKS7); assay: IKZF2 HiBiT degradation assay (Jurkat-IKZF2-HiBiT); format: cell-based; details: for DC50: read-out: IKZF2 degradation DC50; for Dmax: read-out: IKZF2 degradation Dmax (%)
T1 construct: host or cells: Jurkat-IKZF2-HiBiT
T1 sequence (Q9UKS7 whole entry): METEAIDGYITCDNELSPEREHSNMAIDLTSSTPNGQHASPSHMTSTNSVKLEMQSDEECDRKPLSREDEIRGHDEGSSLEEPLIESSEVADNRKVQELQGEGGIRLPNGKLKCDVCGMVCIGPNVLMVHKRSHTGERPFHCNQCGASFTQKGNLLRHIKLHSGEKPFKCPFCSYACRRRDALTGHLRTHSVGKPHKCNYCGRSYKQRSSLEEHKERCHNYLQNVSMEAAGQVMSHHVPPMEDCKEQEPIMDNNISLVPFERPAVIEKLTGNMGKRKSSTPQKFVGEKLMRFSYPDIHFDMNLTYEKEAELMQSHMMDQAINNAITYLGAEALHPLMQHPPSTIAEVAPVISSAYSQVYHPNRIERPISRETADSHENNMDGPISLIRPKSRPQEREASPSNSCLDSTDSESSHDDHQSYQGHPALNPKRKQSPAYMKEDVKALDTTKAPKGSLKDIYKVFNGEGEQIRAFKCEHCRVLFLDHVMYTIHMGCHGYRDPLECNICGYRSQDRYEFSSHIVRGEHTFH
T1 sequence (Q96SW2 whole entry): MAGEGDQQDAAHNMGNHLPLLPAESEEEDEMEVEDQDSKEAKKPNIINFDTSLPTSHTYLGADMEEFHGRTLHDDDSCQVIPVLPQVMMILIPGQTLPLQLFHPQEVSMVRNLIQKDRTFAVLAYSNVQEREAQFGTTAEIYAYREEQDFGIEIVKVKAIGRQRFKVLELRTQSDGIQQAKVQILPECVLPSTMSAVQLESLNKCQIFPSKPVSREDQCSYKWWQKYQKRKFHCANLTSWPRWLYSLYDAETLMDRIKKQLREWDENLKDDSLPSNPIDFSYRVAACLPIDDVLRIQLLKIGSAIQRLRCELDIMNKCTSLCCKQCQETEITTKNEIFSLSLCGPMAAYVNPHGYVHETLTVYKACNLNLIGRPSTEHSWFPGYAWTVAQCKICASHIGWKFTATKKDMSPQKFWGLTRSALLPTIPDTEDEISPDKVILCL
T1 sequence (Q16531 2-1140 partner limits assumed): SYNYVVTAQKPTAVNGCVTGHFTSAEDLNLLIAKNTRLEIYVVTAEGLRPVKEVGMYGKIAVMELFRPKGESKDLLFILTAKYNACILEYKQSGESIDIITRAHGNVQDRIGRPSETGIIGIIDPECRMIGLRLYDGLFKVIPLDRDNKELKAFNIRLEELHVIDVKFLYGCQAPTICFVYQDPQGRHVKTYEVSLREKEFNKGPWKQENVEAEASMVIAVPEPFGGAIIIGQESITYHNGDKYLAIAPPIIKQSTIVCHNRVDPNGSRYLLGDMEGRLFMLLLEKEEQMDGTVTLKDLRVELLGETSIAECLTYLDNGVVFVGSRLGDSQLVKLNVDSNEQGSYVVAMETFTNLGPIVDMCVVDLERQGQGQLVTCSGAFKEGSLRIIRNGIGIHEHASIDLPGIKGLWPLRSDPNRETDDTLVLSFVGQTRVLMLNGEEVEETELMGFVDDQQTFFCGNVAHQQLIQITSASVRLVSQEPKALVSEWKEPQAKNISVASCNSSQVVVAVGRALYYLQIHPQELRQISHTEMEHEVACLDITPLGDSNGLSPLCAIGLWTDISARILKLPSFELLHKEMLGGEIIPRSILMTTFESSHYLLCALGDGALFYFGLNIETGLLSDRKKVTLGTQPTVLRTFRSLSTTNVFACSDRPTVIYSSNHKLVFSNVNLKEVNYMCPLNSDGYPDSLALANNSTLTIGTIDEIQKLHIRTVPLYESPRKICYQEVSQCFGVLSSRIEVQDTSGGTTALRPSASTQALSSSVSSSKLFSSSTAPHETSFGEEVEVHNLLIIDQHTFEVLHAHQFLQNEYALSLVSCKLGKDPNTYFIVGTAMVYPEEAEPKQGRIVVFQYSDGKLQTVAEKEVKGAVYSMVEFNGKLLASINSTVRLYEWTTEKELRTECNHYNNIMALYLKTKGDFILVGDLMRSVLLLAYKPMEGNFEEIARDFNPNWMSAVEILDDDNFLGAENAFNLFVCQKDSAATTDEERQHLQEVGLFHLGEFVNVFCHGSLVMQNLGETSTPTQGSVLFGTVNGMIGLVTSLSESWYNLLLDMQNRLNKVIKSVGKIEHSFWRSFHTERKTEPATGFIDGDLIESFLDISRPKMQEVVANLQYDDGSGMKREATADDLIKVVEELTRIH
Experimental: Degradation of IKZF2 protein was determined by IKZF2 HiBiT assay using the Jurkat-IKZF2-HiBiT (Promega) cell line. […] Compounds were serially diluted in culture medium, and 20 μl of the diluted compounds were added to the appropriate wells of the plate. After the addition of compounds, the cells were incubated at 37° C. in an atmosphere of 5% CO2 for 24 hours. At the end of treatment, 40 ul of Nano-Glo HiBiT Lytic Detection Reagent (Promega) was added to each well, and then the plates were incubated at room temperature for 10-20 minutes. The luminescent signal was measured using a CALRIOstar plate reader (BMG Labtech). The readings were normalized to the DMSO-treated cells and the IC50 was calculated by nonlinear regression (four parameters sigmoid fitted with variable slope, least squares fit, and no constraint) analysis using the GraphPad Prism 8 software.

[2] = Jurkat-IKZF2-HiBiT cells, 24 hours

wild-type human CRBN protein, sequence (Q96SW2 whole entry): as the sequence (Q96SW2 whole entry) above

| Compound | IC50 [1] | DC50 (IKZF2; [2]) | Dmax (IKZF2) | Dmax (IKZF2; [2]) |
| --- | --- | --- | --- | --- |
| O=C1CCC(N2Cc3c(ccc4c3N3CCNC[C@H]3CO4)C2=O)C(=O)N1 (stereo in doubt) [Compound B16, (R)-3-((S)-3-oxo-1,3,7,7a,8,9,10,11-octahydro-2H-pyrazino[1′,2′:4,5][1,4]oxazino[3,2-e]isoindol-2-yl)piperidine-2,6-dione] | 1400 nM | – | – | – |
| O=C1CCC(N2Cc3cc4c(cc3C2=O)OC[C@@H]2CNCCN42)C(=O)N1 (stereo partly drawn) [Compound B1, 3-((S)-8-oxo-1,2,3,4,4a,5,8,10-octahydro-9H-pyrazino[1′,2′:4,5][1,4]oxazino[2,3-f]isoindol-9-yl)piperidine-2,6-dione hydrochloride salt] | 2100 nM | – | – | – |
| O=C1CC[C@@H](N2Cc3cc4c(cc3C2=O)OC[C@@H]2CNCCN42)C(=O)N1 [Compound B2, (R)-3-((S)-8-oxo-1,2,3,4,4a,5,8,10-octahydro-9H-pyrazino[1′,2′:4,5][1,4]oxazino[2,3-f]isoindol-9-yl)piperidine-2,6-dione] | 5200 nM | – | – | – |
| CC(C)(C)OC(=O)N1CCN2c3cc4c(cc3OC[C@@H]2C1)C(=O)N([C@H]1CCC(=O)NC1=O)C4 [Compound B3, (S)-tert-butyl (4aS)-9-(2,6-dioxopiperidin-3-yl)-8-oxo-1,2,4a,5,9,10-hexahydro-8H-pyrazino[1′,2′:4,5][1,4]oxazino[2,3-f]isoindole-3(4H)-carboxylate] | 1700 nM | – | – | – |
| CC(C)(C)OC(=O)N1CCN2c3cc4c(cc3OC[C@@H]2C1)C(=O)N([C@@H]1CCC(=O)NC1=O)C4 [Compound B4, (R)-tert-butyl (4aS)-9-(2,6-dioxopiperidin-3-yl)-8-oxo-1,2,4a,5,9,10-hexahydro-8H-pyrazino[1′,2′:4,5][1,4]oxazino[2,3-f]isoindole-3(4H)-carboxylate] | 3500 nM | – | – | – |
| CN1CCN2c3cc4c(cc3OC[C@@H]2C1)C(=O)N(C1CCC(=O)NC1=O)C4 (stereo partly drawn) [Compound B5, 3-((S)-3-methyl-8-oxo-1,2,3,4,4a,5,8,10-octahydro-9H-pyrazino[1′,2′:4,5][1,4]oxazino[2,3-f]isoindol-9-yl)piperidine-2,6-dione] | 920 nM | – | – | – |
| O=C1CCC(N2Cc3cc4c(cc3C2=O)OC[C@H]2CNCCN42)C(=O)N1 (stereo partly drawn) [Compound B6, 3-((R)-8-oxo-1,2,3,4,4a,5,8,10-octahydro-9H-pyrazino[1′,2′:4,5][1,4]oxazino[2,3-f]isoindol-9-yl)piperidine-2,6-dione trifluoroacetate salt] | 3100 nM | – | – | – |
| Cc1ccc(C(=O)Nc2cccc(CN3CCN4c5cc6c(cc5OC[C@@H]4C3)C(=O)N([C@H]3CCC(=O)NC3=O)C6)c2)cc1 [Compound C23, N-(3-(((S)-9-((S)-2,6-dioxopiperidin-3-yl)-8-oxo-1,2,4a,5,9,10-hexahydro-8H-pyrazino[1′,2′:4,5][1,4]oxazino[2,3-f]isoindol-3(4H)-yl)methyl)phenyl)-4-methylbenzamide] | – | 18 nM | 77% | – |
| O=C1CC[C@H](N2Cc3cc4c(cc3C2=O)OC[C@@H]2CN(Cc3cccc(NC(=O)c5ccc(Cl)cc5)c3)CCN42)C(=O)N1 [Compound C24, 4-chloro-N-(3-(((S)-9-((S)-2,6-dioxopiperidin-3-yl)-8-oxo-1,2,4a,5,9,10-hexahydro-8H-pyrazino[1′,2′:4,5][1,4]oxazino[2,3-f]isoindol-3(4H)-yl)methyl)phenyl)benzamide] | – | 25 nM | 77% | – |
| O=C1CC[C@H](N2Cc3cc4c(cc3C2=O)OC[C@@H]2CN(Cc3cccc(NC(=O)c5ccccc5Cl)c3)CCN42)C(=O)N1 [Compound C25, 2-chloro-N-(3-(((S)-9-((S)-2,6-dioxopiperidin-3-yl)-8-oxo-1,2,4a,5,9,10-hexahydro-8H-pyrazino[1′,2′:4,5][1,4]oxazino[2,3-f]isoindol-3(4H)-yl)methyl)phenyl)benzamide] | – | > 1000 nM | 45% | – |
| CC(=O)Nc1cccc(CN2CCN3c4cc5c(cc4OC[C@@H]3C2)C(=O)N([C@H]2CCC(=O)NC2=O)C5)c1 [Compound C26, N-(3-(((S)-9-((S)-2,6-dioxopiperidin-3-yl)-8-oxo-1,2,4a,5,9,10-hexahydro-8H-pyrazino[1′,2′:4,5][1,4]oxazino[2,3-f]isoindol-3(4H)-yl)methyl)phenyl)acetamide] | – | > 1000 nM | 33% | – |
| COc1ccc(C(=O)N(C)c2cccc(CN3CCN4c5cc6c(cc5OC[C@@H]4C3)C(=O)N([C@H]3CCC(=O)NC3=O)C6)c2)cc1 [Compound C27, N-(3-(((S)-9-((S)-2,6-dioxopiperidin-3-yl)-8-oxo-1,2,4a,5,9,10-hexahydro-8H-pyrazino[1′,2′:4,5][1,4]oxazino[2,3-f]isoindol-3(4H)-yl)methyl)phenyl)-4-methoxy-N-methylbenzamide] | – | > 10000 nM | 21% | – |
| O=C1CC[C@H](N2Cc3cc4c(cc3C2=O)OC[C@@H]2CN(Cc3cccc(NS(=O)(=O)c5ccccc5)c3)CCN42)C(=O)N1 [Compound C28, N-(3-(((S)-9-((S)-2,6-dioxopiperidin-3-yl)-8-oxo-1,2,4a,5,9,10-hexahydro-8H-pyrazino[1′,2′:4,5][1,4]oxazino[2,3-f]isoindol-3(4H)-yl)methyl)phenyl)benzenesulfonamide] | – | > 1000 nM | 11% | – |
| O=C1CC[C@H](N2Cc3cc4c(cc3C2=O)OC[C@@H]2CN(CC3CCCC3)CCN42)C(=O)N1 [Compound C29, (S)-3-((S)-3-(cyclopentylmethyl)-8-oxo-1,2,3,4a,5,8,10-octahydro-9H-pyrazino[1′,2′:4,5][1,4]oxazino[2,3-f]isoindol-9-yl)piperidine-2,6-dione] | – | 402 nM | 61% | – |
| O=C1CCC(N2Cc3cc4c(cc3C2=O)OC[C@H]2CN(CC3CCCC3)CCN42)C(=O)N1 (stereo partly drawn) [Compound C30, 3-((R)-3-(cyclopentylmethyl)-8-oxo-1,2,3,4,4a,5,8,10-octahydro-9H-pyrazino[1′,2′:4,5][1,4]oxazino[2,3-f]isoindol-9-yl)piperidine-2,6-dione] | – | > 1000 nM | 0% | – |
| O=C1CC[C@H](N2Cc3cc4c(cc3C2=O)OC[C@@H]2CN(CC3CCC3)CCN42)C(=O)N1 [Compound C31, (S)-3-((S)-3-(cyclobutylmethyl)-8-oxo-1,2,3,4,4a,5,8,10-octahydro-9H-pyrazino[1′,2′:4,5][1,4]oxazino[2,3-f]isoindol-9-yl)piperidine-2,6-dione] | – | 1260 nM | 58% | – |
| O=C1CC[C@H](N2Cc3cc4c(cc3C2=O)OC[C@@H]2CN(CCC3CCCCC3)CCN42)C(=O)N1 [Compound C32, (S)-3-((S)-3-(2-cyclohexylethyl)-8-oxo-1,2,3,4,4a,5,8,10-octahydro-9H-pyrazino[1′,2′:4,5][1,4]oxazino[2,3-f]isoindol-9-yl)piperidine-2,6-dione] | – | 324 nM | 71% | – |
| C[C@H]1CC[C@H](CN2CCN3c4cc5c(cc4OC[C@@H]3C2)C(=O)N([C@H]2CCC(=O)NC2=O)C5)CC1 [Compound C33, (S)-3-((S)-3-(((1r,4S)-4-methylcyclohexyl)methyl)-8-oxo-1,2,3,4,4a,5,8,10-octahydro-9H-pyrazino[1′,2′:4,5][1,4]oxazino[2,3-f]isoindol-9-yl)piperidine-2,6-dione] | – | 515 nM | 67% | – |
| CC1(C)CCC(CN2CCN3c4cc5c(cc4OC[C@@H]3C2)C(=O)N([C@H]2CCC(=O)NC2=O)C5)CC1 [Compound C34, (S)-3-((S)-3-((4,4-dimethylcyclohexyl)methyl)-8-oxo-1,2,3,4,4a,5,8,10-octahydro-9H-pyrazino[1′,2′:4,5][1,4]oxazino[2,3-f]isoindol-9-yl)piperidine-2,6-dione] | – | 414 nM | 68% | – |
| O=C1CC[C@H](N2Cc3cc4c(cc3C2=O)OC[C@@H]2CN(CC3CCC5(CC3)COC5)CCN42)C(=O)N1 [Compound C35, (S)-3-((S)-3-((2-oxaspiro[3.5]nonan-7-yl)methyl)-8-oxo-1,2,3,4,4a,5,8,10-octahydro-9H-pyrazino[1′,2′:4,5][1,4]oxazino[2,3-f]isoindol-9-yl)piperidine-2,6-dione] | – | 933 nM | 66% | – |
| O=C1CC[C@H](N2Cc3cc4c(cc3C2=O)OC[C@@H]2CN(CC3CC5CCC3C5)CCN42)C(=O)N1 (stereo partly drawn) [Compound C36, (3S)-3-((4aS)-3-(bicyclo[2.2.1]heptan-2-ylmethyl)-8-oxo-1,2,3,4,4a,5,8,10-octahydro-9H-pyrazino[1′,2′:4,5][1,4]oxazino[2,3-f]isoindol-9-yl)piperidine-2,6-dione] | – | 376 nM | 68% | – |
| O=C1CC[C@H](N2Cc3cc4c(cc3C2=O)OC[C@@H]2CN(CC3CC5CCC3CC5)CCN42)C(=O)N1 (stereo partly drawn) [Compound C37, (3S)-3-((4aS)-3-(bicyclo[2.2.2]octan-2-ylmethyl)-8-oxo-1,2,3,4,4a,5,8,10-octahydro-9H-pyrazino[1′,2′:4,5][1,4]oxazino[2,3-f]isoindol-9-yl)piperidine-2,6-dione] | – | 318 nM | 69% | – |
| CC(C)(C)OC(=O)N1CCC2(CCC(CN3CCN4c5cc6c(cc5OC[C@@H]4C3)C(=O)N([C@H]3CCC(=O)NC3=O)C6)CC2)CC1 [Compound C38, tert-butyl 9-(((S)-9-((S)-2,6-dioxopiperidin-3-yl)-8-oxo-1,2,4a,5,9,10-hexahydro-8H-pyrazino[1′,2′:4,5][1,4]oxazino[2,3-f]isoindol-3(4H)-yl)methyl)-3-azaspiro[5.5]undecane-3-carboxylate] | – | 424 nM | 57% | – |
| O=C1CCC(N2Cc3cc(C4CCN(Cc5ccccc5)CC4)ccc3C2=O)C(=O)N1 (centres unmarked) [DKY709] | – | 62 nM | – | 67% |

Source: patent US20260265271A1, “Cereblon Ligands and Uses Thereof” (REGENTS OF THE UNIVERSITY OF MICHIGAN, priority 2022, published 2026)
